Experimental data from patent US11547706B2, “Methods and compositions for reducing tactile dysfunction and anxiety associated with autism spectrum disorder, Rett syndrome, and Fragile X syndrome” (President and Fellows of Harvard College, priority 2016, dated 2023).
“Also recorded” adds a separate entry of the source.

Legend:
[1] = system: Advillin^Cre; Mecp2^f/y mutant mice and control littermates; assay: Magnitude of startle response to a 125 dB noise after drug injection; assay type: in vivo, mouse; conditions: Midazolam 2.5 mg/kg injection, compared to animals treated with vehicle
Description: (§1) FIG. 15A is a graph showing the startle response of Advillin^Cre; Mecp2^f/y mutant mice and control littermates following injection of: vehicle (saline), Bumetanide (0.2 mg/kg), Midazolam (2.5 mg/kg) or isoguvacine (1 mg/kg). […] FIG. 15B is a graph showing the response to tactile PPI of Advillin^Cre; Mecp2^f/y mutant mice and control littermates following injection of: vehicle (saline), Bumetanide (0.2 mg/kg), Midazolam (2.5 mg/kg) or isoguvacine (1 mg/kg). […] FIG. 15C is a graph showing the response to air puff alone of Advillin^Cre; Mecp2^f/y mutant mice and control littermates following injection of: vehicle (saline), Bumetanide (0.2 mg/kg), Midazolam (2.5 mg/kg) or isoguvacine (1 mg/kg).
(§2) The response of mice to tactile and acoustic startle stimuli, and the ability of a tactile or acoustic stimulus to inhibit startle to a loud acoustic stimulus was measured using a San Diego Instruments startle reflex system (SR-LAB™ Startle Response System). […] Air puffs were administered to the back of the mouse to assess hairy skin sensitivity. […]
(§3) For acoustic PPI, the prepulse was 20 ms in duration and presented 100 ms before the startle pulse (inter-stimulus interval, ISI). […] Whole body flinch, or startle reflex, was quantitated using an accelerometer sensor measuring the amplitude of movement of the animal, within the cylindrical holder.

[2] = system: Advillin^Cre; Mecp2^f/y mutant mice; assay: Tactile PPI assay after drug injection; assay type: in vivo, mouse; conditions: Midazolam 2.5 mg/kg or isoguvacine 1 mg/kg injection
Description: as §1, §2, §3

[3] = system: Advillin^Cre; Mecp2^f/y mutant mice; assay: Response to air puff stimulus alone after drug injection; assay type: in vivo, mouse; conditions: Midazolam 2.5 mg/kg or isoguvacine 1 mg/kg injection
Description: as §1
The response of mice to tactile and acoustic startle stimuli, and the ability of a tactile or acoustic stimulus to inhibit startle to a loud acoustic stimulus was measured using a San Diego Instruments startle reflex system (SR-LAB™ Startle Response System). […] Air puffs were administered to the back of the mouse to assess hairy skin sensitivity. […] In addition, this prepulse intensity was chosen because it produced significant inhibition of startle reflex at multiple (ISIs). […]

[4] = system: large diameter DRG neurons cultured from control mice; assay: Whole cell patch clamp recordings of cultured large diameter DRG neurons; assay type: cell-based, mouse; conditions: 10 μM isoguvacine, 5 minutes after application
Text: Repeated measures one-way ANOVA, *, p<0.05. […] Student's paired t-test, p<0.05. […] Repeated measures one-way ANOVA, *, p<0.05. […] Student's paired t-test, p<0.05.
These exciting findings prompted us to ask whether peripherally restricted GABAA receptor agonists could also be used to ameliorate tactile hypersensitivity and other behavioral deficits in ASD models. We utilized a peripherally restricted GABAA receptor agonist, isoguvacine, to determine whether augmenting GABAA receptor signaling at DRG cell bodies could reduce excitability of primary somatosensory afferents.

[5] = system: large diameter DRG neurons cultured from Shank3B^+/- or Mecp2^STOP/y mice; assay: Whole cell patch clamp recordings of cultured large diameter DRG neurons from mutant mice; assay type: cell-based, mouse; conditions: 10 μM isoguvacine; for resting membrane potential / rheobase, excitability: neurons from Shank3B^+/- or Mecp2^STOP/y mice
Text: Repeated measures two-way ANOVA with post-hoc Tukey's test: *, p<0.05. […] Repeated measures two-way ANOVA with post-hoc Tukey's test: *, p<0.05. […] Repeated measures two-way ANOVA with post-hoc Tukey's test: *, p<0.05. […] Repeated measures two-way ANOVA with post-hoc Tukey's test: *, p<0.05.
We next determined whether isoguvacine could improve electrophysiological deficits observed in large diameter peripheral somatosensory neurons cultured from Shank3 and Mecp2 mutant mice.

[6] = system: Mecp2, Shank3 and Fmr1 mutant mice; assay: Tactile PPI assay in multiple ASD mouse models; assay type: in vivo; conditions: 1 mg/kg, i.p., acute, 30 minutes before test
Description: (§4) Values are expressed as percent of control littermates' performance. Experiments were performed in mutant mice (Advillin^Cre; Mecp2^f/y, Shank3B^+/− or Fmr1^−/y) and control littermates, 30 minutes after an intraperitoneal (i.p.) of either saline (vehicle) or Isoguvacine (1 mg/kg). Two-way ANOVA, with post-hoc Holm-Sidak's test, *, p<0.05, when comparing mutants to control within same treatment; #, p<0.05, when comparing the same genotype across different treatments. FIG. 56B is a graph of response to a light air puff stimulus alone (0.9 PSI, 50 ms). Responses are expressed as a percent of startle response to a 125-B noise. Experiments were performed in mutant mice (Advillin^Cre; Mecp2^f/y, Shank3B^+/− or Fmr1^−/y) and control littermates, 30 minutes after an intraperitoneal (i.p.) of either saline (vehicle) or isoguvacine (1 mg/kg). Two-way ANOVA, with post-hoc Holm-Sidak's test, *, p<0.05, and t, p<0.10, when comparing mutants to control within same treatment; #, p<0.05, when comparing the same genotype across different treatments. FIG. 56C is a graph of magnitude of startle response to a 125-dB noise. […]
(§5) The response of mice to tactile and acoustic startle stimuli, and the ability of a tactile or acoustic stimulus to inhibit startle to a loud acoustic stimulus was measured using a San Diego Instruments startle reflex system (SR-LAB™ Startle Response System). […]

[7] = system: mice including Advillin^Cre; Mecp2^floxed mutant mice; assay: Open field test after isoguvacine; assay type: in vivo, mouse; conditions: 1 mg/kg, i.p.
Description: as §4
On the first day of behavioral testing, animals were subjected to the open field test. […] A portion of videos were blindly hand-scored to verify accuracy. Distance traveled and time spent away from walls (time in center) were analyzed per 10-minute video.

control mice = assay: Tactile PPI with back hairy skin pretreated with lidocaine; assay type: in vivo, mouse
Description: FIG. 1A is an image showing a smooth textured object (left) and a rough textured object (right) used in the textured NORT. FIG. 1B is a schematic outlining the protocol for the three NORT assays. FIG. 1C is a graph showing the discrimination indices for textured NORT. A positive value indicates preference for the novel object, compared to the familiar object. *, p<0.05. FIG. 1D is a graph showing the discrimination indices for 5 minute control NORT. A positive value indicates preference for the novel object, compared to the familiar object. *, p<0.05. FIG. 1E is a graph showing the discrimination indices for 1 hour control NORT. A positive value indicates preference for the novel object, compared to the familiar object. *, p<0.05. FIG. 1F is a schematic showing the tactile PPI assay. […] Responses are expressed as percent of startle response to a 125 dB noise. *, p<0.01. […] Responses are expressed as percent of startle response to a 125 dB noise. *, p<0.05. […]
as §5

Compound | startle amplitude [1] | responses in the tactile PPI assay [2] | response to an air puff stimulus alone [3] | minimal current required to produce an action potential (rheobase), excitability [4] | resting membrane potential [4] | rheobase compared with neurons cultured from control littermates ([5]; neurons from Shank3B^+/- and Mecp2^STOP/y mice) | resting membrane potential [5] | rheobase, excitability [5] | resting membrane potential ([5]; listed as Isoguvacine) | rheobase, excitability ([5]; listed as Isoguvacine) | tactile hypersensitivity, as measured by the tactile PPI assay [6] | time spent in the center of a chamber during the open field test [7] | tactile PPI (control mice)
Cc1ncc2n1-c1ccc(Cl)cc1C(c1ccccc1F)=NC2 [Midazolam] | trend toward decreased startle amplitude | trend toward normalized responses | decreased response to an air puff stimulus alone | – | – | – | – | – | – | – | – | – | –
O=C(O)C1=CCNCC1 [isoguvacine] | – | trend toward normalized responses | decreased response to an air puff stimulus alone | decreases excitability; also recorded: increase in the amount of minimal current required to produce an action potential | reduces resting membrane potential; also recorded: decrease in resting membrane potential | rheobase was no longer different than neurons cultured from control littermates | significant decrease in resting membrane potential | increase in rheobase | reduces resting membrane potential | decreases excitability | significantly reduces tactile hypersensitivity | enhanced the time spent in the center | –
CCN(CC)CC(=O)Nc1c(C)cccc1C [lidocaine] | – | – | – | – | – | – | – | – | – | – | – | – | abolished
